According to publication PMC8504809 (Clinical and Translational Science, 2021):

Columns and labels:
[1] = clinical trial; cited from earlier work
[2] = humans; cited from earlier work
[3] = Pharmacokinetics of rifampin after oral administration; format: in vivo; settings: male, cynomolgus monkey, plasma, 20 mg/kg
[4] = Plasma pharmacokinetics after single IV cassette infusion; format: in vivo, cynomolgus monkey
[5] = Urinary excretion in monkeys; format: in vivo; settings: in-house bile duct cannulation (BDC) monkey study (data not shown)
Liver exposure = format: in vivo, cynomolgus monkey; settings: for liver concentration, RIF vs vehicle, at 1 h: 1 h post IV infusion; for increase of liver concentration with RIF at 6 h: average, RIF vs vehicle, N = 2 per time point
[6] = test system: suspension monkey hepatocytes; experiment: In vitro hepatic uptake clearance in suspension monkey hepatocytes; format: in vitro ADME, cynomolgus monkey; settings: 37°C
[7] = Monkey PBPK model fitting of plasma and liver concentrations; set-up: species or system cynomolgus monkey; settings: for reduction of active uptake clearance with rifampin inhibition (modeled): PBPK model, RIF vs vehicle; for Kp: plasma and liver
OATP1B1 = settings: read-out: Ki against OATP1B1; cited from earlier work
OAT2 = settings: read-out: IC50 for OAT2; cited from earlier work
OATP1B3 = settings: read-out: Ki against OATP1B3; cited from earlier work
[8] = cited from earlier work
[9] = monkeys; cited from earlier work
[10] = RIF 20 mg/kg orally vs vehicle, monkeys
[11] = PBPK fitted, rifampin, estimate (%CV)
[12] = PBPK fitted, vehicle, estimate (%CV)
[13] = rifampin, fixed to the value estimated without rifampin
[14] = cynomolgus monkey, intravenous, 0.5 mg/kg, Kp,rest, PBPK fitted, vehicle, estimate (%CV)
[15] = cynomolgus monkey, intravenous, 0.5 mg/kg, Kp,scalar, PBPK fitted, vehicle, estimate (%CV)

In the case of COc1ccccc1[C@H](Cn1c(=O)n(C(C)(C)C(=O)O)c(=O)c2c(C)c(-c3ncco3)sc21)OC1CCOCC1 [GS‐0976], the “pharmacodynamic (PD) effect with potent OATP inhibitor” value [1] is given as “not altered” and the “plasma concentration with potent OATP inhibitor” value [1] is given as “increased significantly”.

In the case of O=C(O)C[C@H](O)C[C@H](O)/C=C/c1c(C2CC2)nc2ccccc2c1-c1ccc(F)cc1 [pitavastatin], the “increase of systemic exposure when co-administered orally with rifampin” value [2] is given as 5.7 fold.

With CO[C@H]1/C=C/O[C@@]2(C)Oc3c(C)c(O)c4c(O)c(c(/C=N/N5CCN(C)CC5)c(O)c4c3C2=O)NC(=O)/C(C)=C\C=C\[C@H](C)[C@H](O)[C@@H](C)[C@@H](O)[C@@H](C)[C@H](OC(C)=O)[C@@H]1C [RIF, rifampin] the concentration at 3.25 h ([3]; oral) was 20.8 µM, the concentration at 6 h ([3]; oral) was over 10 µM and the Tmax ([3]; po) was 3.5 to 4.5 h.

With CN(C)c1ccc2c(c1)c(=O)n(-c1ccc(C[C@H](NC(=O)c3c(Cl)cccc3Cl)C(=O)O)cc1)c(=O)n2C [Carotegrast] the “decrease of systemic CL in the presence of RIF” value (“decrease of systemic CL” below) [4, 10] was “about 10 fold”, the “increase of Cmax with RIF” value [4, 10] was 4.8 fold and the “increase of plasma exposure (AUClast) with RIF compared to the vehicle group” value (“increase of plasma exposure (AUClast)” for short) [4, 10] was 9.1 fold. The “volume of distribution (V)” value ([4]; in the presence of RIF) was 0.05 L/kg, the “volume of distribution (V)” value ([4]; vehicle group (without RIF)) was 0.11 L/kg and the “Urinary excretion, % of total dose” value [5] was 7.5%. For the same molecule, the “liver concentration, RIF vs vehicle, at 1 h” value (Liver exposure) was “comparable”, the “liver concentrations, RIF-treated vs vehicle group, at 2.5 h and 6 h” value (Liver exposure; 2.5 h and 6 h) was “higher” and the “average Kp,liver (liver to plasma ratio)” value (Liver exposure; without RIF (reduced by RIF treatment), Figure S3) was about 17. The “hepatocyte uptake in the presence of 200 µM of rifamycin SV” value (“hepatocyte uptake in the presence” below) [6] was “greatly inhibited”, the “CL,u,int,passive” value [7, 11] was 2.9 (32.4%) ml/min/kg and the “CLu,int,active” value [7, 11] was 95.2 (4.4%) ml/min/kg. For the same molecule, the “CLu,int,bile” value [7, 11] was 11.7 (0.1%) ml/min/kg, the “CL,u,int,passive” value [7, 12] was 4.1(11.8%) ml/min/kg and the “CLu,int,active” value [7, 12] was 1154.1 (5.2%) ml/min/kg. The “CLu,int,bile” value [7, 12] was 16.3 (0.022%) ml/min/kg, the “Kp,rest” value [7, 12] was 0.85 (6.1%) and the “Kp,scalar” value [7, 12] was 0.16 (29.4%). For the same molecule, the “Kp,rest” value [7, 13] was 0.85 (fixed) and the “Kp,scalar” value [7, 13] was 0.16 (fixed).

With coproporphyrin I [CP‐I] the “increase of plasma exposure (AUClast)” value [4, 10] was 5.4 fold, the “liver concentration, RIF vs vehicle, at 1 h” value (Liver exposure) was “minimally changed” and the “increase of liver concentration with RIF at 6 h” value (Liver exposure) was 3.2 fold.

In the case of CO[C@H]1/C=C/O[C@@]2(C)Oc3c(C)c(O)c4c(O)c(cc(O)c4c3C2=O)NC(=O)/C(C)=C\C=C\[C@H](C)[C@H](O)[C@@H](C)[C@@H](O)[C@@H](C)[C@H](OC(C)=O)[C@@H]1C [rifamycin SV], the Ki (OATP1B1) is listed as 2 µM, the IC50 (OAT2) is listed as about 200 µM and the Ki (OATP1B3) is listed as 3 µM.

With CC(C)c1nc(N(C)S(C)(=O)=O)nc(-c2ccc(F)cc2)c1/C=C/[C@@H](O)C[C@@H](O)CC(=O)O [Rosuvastatin] the “decrease of systemic CL” value [4, 10] was 2.2 fold, the “increase of plasma exposure (AUClast)” value [4, 10] was 2.3 fold and the “liver concentrations, vehicle vs RIF pretreated groups, at 1, 2.5, and 6 h” value (Liver exposure) was “overlapped”. The “fraction cleared through renal excretion” value ([8]; humans) was “less than 10%”, the “Urinary excretion, % of the absorbed dose” value [9] was ~ 20% and the “hepatocyte uptake in the presence” value [6] was “greatly inhibited”. The “CL,u,int,passive” value [7, 11] was 0.5 (41%) ml/min/kg, the “CLu,int,active” value [7, 11] was 81.7 (8.5%) ml/min/kg and the “CLu,int,bile” value [7, 11] was 2.6 (19.7%) ml/min/kg. The “CL,u,int,passive” value [7, 12] was 1.0 (22.5%) ml/min/kg, the “CLu,int,active” value [7, 12] was 331.8 (13.8%) ml/min/kg and the “CLu,int,bile” value [7, 12] was 2.8 (1.7%) ml/min/kg. The “reduction of active uptake clearance with rifampin inhibition (modeled)” value [7] was 75%, the Kp [7, 14] was 2.7 and the Kp [7, 15] was 1.1. It also gave a CL renal ([7]; cynomolgus monkey, plasma, intravenous, 0.5 mg/kg) of 4.4 mL/min/kg.

For Nc1c(CC(=O)O)cccc1C(=O)c1ccc(Br)cc1 [Bromfenac], the “decrease of systemic CL” value [4, 10] was 2.1 fold, the “increase of plasma exposure (AUClast)” value [4, 10] was 2.1 fold and the “liver concentrations, vehicle vs RIF pretreated groups, at 1, 2.5, and 6 h” value (Liver exposure) was “overlapped”. For the same molecule, the “bromfenac glucuronide excreted in urine, % of the administered dose” value ([8]; healthy subjects) was 82.5%, the “hepatocyte uptake in the presence” value [6] was “partially inhibit” and the “CL,u,int,passive” value [7, 11] was 11.2 (95.3%) ml/min/kg. For the same molecule, the “CLu,int,active” value [7, 11] was 820 (10.8%) ml/min/kg, the “CLu,int,meta” value [7, 11] was 84.8 (3.8%) ml/min/kg and the “CL,u,int,passive” value [7, 12] was 13.1 (96.2%) ml/min/kg. For the same molecule, the “CLu,int,active” value [7, 12] was 2300 (18.7%) ml/min/kg, the “CLu,int,meta” value [7, 12] was 49.7 (16.9%) ml/min/kg and the “reduction of active uptake clearance with rifampin inhibition (modeled)” value [7] was 64%. The Kp [7, 14] was 0.8 and the Kp [7, 15] was 0.5.

In the case of CC1=C(CCC(=O)O)c2cc3nc(cc4[nH]c(cc5[nH]c(cc1n2)c(C)c5CCC(=O)O)c(CCC(=O)O)c4C)C(CCC(=O)O)=C3C [CP‐III], the “increase of plasma exposure (AUClast)” value [4, 10] is reported as 8.8 fold, the “liver concentration, RIF vs vehicle, at 1 h” value (Liver exposure) is reported as “minimally changed” and the “increase of liver concentration with RIF at 6 h” value (Liver exposure) is reported as 3.7 fold.
